# From PMC9948168, “Vanillin-Based Indolin-2-one Derivative Bearing a Pyridyl Moiety as a Promising Anti-Breast Cancer Agent via Anti-Estrogenic Activity” (ACS Omega, 2023)
# Assays:
# Test in all cases: NCI-60 one-dose screening
# Format in all cases: cell-based
# U251 = details: Homo sapiens, U-251, U251, CNS Cancer, read-out: GI (%)
# Procedure: (§1) Compounds 5a–c and 6a–o were tested using standard NCI protocols for in vitro activity at the National Cancer Institute (NCI, Bethesda, Maryland, USA), wherein compounds were tested using one single concentration of 10 μM against 60 cell lines of nine different cancer types. […] Excellent activity was observed against a single NSCLC cell line, EKVX, for compounds 5a–c (GIs = 77–86%, Table 1) with no observed activity for indoles with substituted vanillin 6a–o.
# (§2) Anticancer activity was tested against 60 cancer cell lines at the NCI, Bethesda, USA. The screening process was done with a single dosage of 10 μM according to NCI protocols published on the NCI website https://dtp.cancer.gov/discovery_development/nci-60/methodology.htm.
# EKVX = details: Homo sapiens, Non-Small Cell Lung Cancer, read-out: GI (%)
# Procedure: as §1, §2
# SF-295 = details: Homo sapiens, SF-295, CNS Cancer, read-out: GI (%)
# Procedure: as §1, §2
# TK-10 = details: Homo sapiens, TK-10, Renal Cancer, read-out: GI (%)
# Procedure: as §1, §2
# CCRF-CEM = details: Homo sapiens, Leukemias, read-out: GI (%)
# Procedure: as §1, §2
# COLO 205 = details: Homo sapiens, COLO 205, Colon Cancer, read-out: GI (%)
# Procedure: as §1, §2
# OVCAR-3 = details: Homo sapiens, OVCAR-3, 10 μM; OVCAR-3, Ovarian Cancer; read-out: GI (%)
# Procedure: as §1, §2
# A498 = details: Homo sapiens, A498, Renal Cancer, read-out: GI (%)
# Procedure: as §1, §2
# PC-3 = details: Homo sapiens, PC-3, Prostate Cancer, read-out: GI (%)
# Procedure: as §1, §2
# HOP-62 = details: Homo sapiens, HOP-62, Non-Small Cell Lung Cancer, read-out: GI (%)
# Procedure: as §1, §2
# HCC-2998 = details: Homo sapiens, HCC-2998, Colon Cancer, read-out: GI (%)
# Procedure: as §1, §2
# KM12 = details: Homo sapiens, KM12, Colon Cancer, read-out: GI (%)
# Procedure: as §1, §2
# HS 578T = details: Homo sapiens, Breast Cancer, read-out: GI (%)
# Procedure: as §1, §2
# NCI-H226 = details: Homo sapiens, NCI-H226, Non-Small Cell Lung Cancer, read-out: GI (%)
# Procedure: as §1, §2
# OVCAR-5 = details: Homo sapiens, OVCAR-5, Ovarian Cancer, read-out: GI (%)
# Procedure: as §1, §2
# SW-620 = details: Homo sapiens, SW-620, Colon Cancer, read-out: GI (%)
# Procedure: as §1, §2
# SN12C = details: Homo sapiens, Renal Cancer, read-out: GI (%)
# Procedure: as §1, §2
# NCI-H460 = details: Homo sapiens, NCI-H460, Non-Small Cell Lung Cancer, read-out: GI (%)
# Procedure: as §1, §2
# HL-60(TB) = details: Homo sapiens, Leukemias, read-out: GI (%)
# Procedure: as §1, §2
# K-562 = details: Homo sapiens, K562, K-562, Leukemias, read-out: GI (%)
# Procedure: as §1, §2
# NCI-H322M = details: Homo sapiens, Non-Small Cell Lung Cancer, read-out: GI (%)
# Procedure: as §1, §2
# MCF7 = details: Homo sapiens, MCF7, 10 μM; MCF7, Breast Cancer; read-out: GI (%)
# Procedure: as §1, §2
# HCT-116 = details: Homo sapiens, HCT-116, Colon Cancer, read-out: GI (%)
# Procedure: as §1, §2
# SNB-75 = details: Homo sapiens, SNB-75, CNS Cancer, read-out: GI (%)
# Procedure: as §1, §2
# MDA-MB-468 = details: Homo sapiens, MDA-MB-468, Breast Cancer, read-out: GI (%)
# Procedure: as §1, §2
# SK-MEL-2 = details: Homo sapiens, SK-MEL-2, Melanoma, read-out: GI (%)
# Procedure: as §1, §2
# SNB-19 = details: Homo sapiens, SNB-19, CNS Cancer, read-out: GI (%)
# Procedure: as §1, §2
# SK-MEL-5 = details: Homo sapiens, SK-MEL-5, Melanoma, read-out: GI (%)
# Procedure: as §1, §2
# UACC-257 = details: Homo sapiens, UACC-257, Melanoma, read-out: GI (%)
# Procedure: as §1, §2
# MALME-3M = details: Homo sapiens, Melanoma, read-out: GI (%)
# Procedure: as §1, §2
# BT-549 = details: Homo sapiens, BT-549, Breast Cancer, read-out: GI (%)
# Procedure: as §1, §2
# OVCAR-8 = details: Homo sapiens, OVCAR-8, Ovarian Cancer, read-out: GI (%)
# Procedure: as §1, §2
# MDA-MB-231/ATCC = details: Homo sapiens, Breast Cancer, read-out: GI (%)
# Procedure: as §1, §2
# SR = details: Homo sapiens, Leukemias, read-out: GI (%)
# Procedure: as §1, §2
# HOP-92 = details: Homo sapiens, HOP-92, Non-Small Cell Lung Cancer, read-out: GI (%)
# Procedure: as §1, §2
# NCI-H522 = details: Homo sapiens, NCI-H522, Non-Small Cell Lung Cancer, read-out: GI (%)
# Procedure: as §1, §2
compound,measurement,setting,value
COc1cc(C=C2C(=O)Nc3ccccc32)ccc1OCc1ccccn1 (mixture of isomers) [6e],inhibition at 10 µM,U251,9.28%
same,inhibition at 10 µM,EKVX,22.4%
same,inhibition at 10 µM,SF-295,4.7%
same,inhibition at 10 µM,TK-10,-51.2%
same,inhibition at 10 µM,CCRF-CEM,8.27%
same,inhibition at 10 µM,COLO 205,-16%
same,inhibition at 10 µM,OVCAR-3,0.9%
same,inhibition at 10 µM,A498,22.2%
same,inhibition at 10 µM,PC-3,7.05%
same,inhibition at 10 µM,HOP-62,7.92%
same,inhibition at 10 µM,HCC-2998,-16.2%
same,inhibition at 10 µM,KM12,3.09%
same,inhibition at 10 µM,HS 578T,-1.16%
same,inhibition at 10 µM,NCI-H226,6.29%
same,inhibition at 10 µM,OVCAR-5,-3.35%
same,inhibition at 10 µM,SW-620,-0.45%
same,inhibition at 10 µM,SN12C,2.56%
same,inhibition at 10 µM,NCI-H460,0.59%
same,inhibition at 10 µM,HL-60(TB),13%
same,inhibition at 10 µM,K-562,19.6%
same,inhibition at 10 µM,NCI-H322M,8.2%
same,inhibition at 10 µM,MCF7,50 to 65%
same,inhibition at 10 µM,HCT-116,3.95%
same,inhibition at 10 µM,SNB-75,-6.42%
same,inhibition at 10 µM,MDA-MB-468,14.2%
same,inhibition at 10 µM,SK-MEL-2,-1.21%
same,inhibition at 10 µM,SNB-19,9.82%
same,inhibition at 10 µM,SK-MEL-5,11.7%
same,inhibition at 10 µM,UACC-257,-10.9%
same,inhibition at 10 µM,MALME-3M,6.1%
same,inhibition at 10 µM,BT-549,-6.45%
same,inhibition at 10 µM,OVCAR-8,0.31%
same,inhibition at 10 µM,MDA-MB-231/ATCC,18.1%
same,inhibition at 10 µM,SR,21.7%
same,inhibition at 10 µM,HOP-92,28.1%
same,inhibition at 10 µM,NCI-H522,5.36%
COc1cc(/C=C2/C(=O)Nc3cc(Cl)ccc32)ccc1OCc1ccccc1 [6k],inhibition at 10 µM,U251,-7.73%
same,inhibition at 10 µM,EKVX,17.2%
same,inhibition at 10 µM,SF-295,-1.02%
same,inhibition at 10 µM,TK-10,-55.6%
same,inhibition at 10 µM,CCRF-CEM,-1.12%
same,inhibition at 10 µM,COLO 205,-16.6%
same,inhibition at 10 µM,OVCAR-3,-3.45%
same,inhibition at 10 µM,A498,-15.1%
same,inhibition at 10 µM,PC-3,6.35%
same,inhibition at 10 µM,HOP-62,0.16%
same,inhibition at 10 µM,HCC-2998,0.85%
same,inhibition at 10 µM,KM12,1.29%
same,inhibition at 10 µM,HS 578T,0.08%
same,inhibition at 10 µM,NCI-H226,1.98%
same,inhibition at 10 µM,OVCAR-5,3.05%
same,inhibition at 10 µM,SW-620,2.54%
same,inhibition at 10 µM,SN12C,3.34%
same,inhibition at 10 µM,NCI-H460,1.83%
same,inhibition at 10 µM,HL-60(TB),-20.2%
same,inhibition at 10 µM,K-562,3.86%
same,inhibition at 10 µM,NCI-H322M,0.99%
same,inhibition at 10 µM,MCF7,31%
same,inhibition at 10 µM,HCT-116,-2.15%
same,inhibition at 10 µM,SNB-75,3.2%
same,inhibition at 10 µM,MDA-MB-468,7.61%
same,inhibition at 10 µM,SK-MEL-2,-5.05%
same,inhibition at 10 µM,SNB-19,1.7%
same,inhibition at 10 µM,SK-MEL-5,-1.43%
same,inhibition at 10 µM,UACC-257,-10.4%
same,inhibition at 10 µM,MALME-3M,4.05%
same,inhibition at 10 µM,BT-549,16.8%
same,inhibition at 10 µM,OVCAR-8,0.19%
same,inhibition at 10 µM,MDA-MB-231/ATCC,8.09%
same,inhibition at 10 µM,SR,6.78%
same,inhibition at 10 µM,HOP-92,4.54%
same,inhibition at 10 µM,NCI-H522,4.41%
COc1cc(C=C2C(=O)Nc3cc(Cl)ccc32)ccc1OCc1ccc(Cl)cc1 (mixture of isomers) [6l],inhibition at 10 µM,U251,-5.85%
same,inhibition at 10 µM,EKVX,24.8%
same,inhibition at 10 µM,SF-295,2.01%
same,inhibition at 10 µM,TK-10,-59.6%
same,inhibition at 10 µM,CCRF-CEM,3.42%
same,inhibition at 10 µM,COLO 205,-13.1%
same,inhibition at 10 µM,OVCAR-3,-3.06%
same,inhibition at 10 µM,A498,5.41%
same,inhibition at 10 µM,PC-3,11.1%
same,inhibition at 10 µM,HOP-62,4.49%
same,inhibition at 10 µM,HCC-2998,-18.5%
same,inhibition at 10 µM,KM12,3.74%
same,inhibition at 10 µM,HS 578T,4.96%
same,inhibition at 10 µM,NCI-H226,4.89%
same,inhibition at 10 µM,OVCAR-5,-2.97%
same,inhibition at 10 µM,SW-620,2.57%
same,inhibition at 10 µM,SN12C,1.62%
same,inhibition at 10 µM,NCI-H460,9.67%
same,inhibition at 10 µM,HL-60(TB),-11.5%
same,inhibition at 10 µM,K-562,9.88%
same,inhibition at 10 µM,NCI-H322M,4.89%
same,inhibition at 10 µM,MCF7,50 to 65%
same,inhibition at 10 µM,HCT-116,5.08%
same,inhibition at 10 µM,SNB-75,-3.14%
same,inhibition at 10 µM,MDA-MB-468,4.61%
same,inhibition at 10 µM,SK-MEL-2,-8.37%
same,inhibition at 10 µM,SNB-19,-5.43%
same,inhibition at 10 µM,SK-MEL-5,1.7%
same,inhibition at 10 µM,UACC-257,-8.7%
same,inhibition at 10 µM,MALME-3M,2.26%
same,inhibition at 10 µM,BT-549,6.99%
same,inhibition at 10 µM,OVCAR-8,2.85%
same,inhibition at 10 µM,MDA-MB-231/ATCC,8.37%
same,inhibition at 10 µM,SR,4.64%
same,inhibition at 10 µM,HOP-92,15.3%
same,inhibition at 10 µM,NCI-H522,4.01%
